Measured values as given in paper PMC10726465, “Synthesis and Evaluation of Small Molecule Inhibitors of the Androgen Receptor N-Terminal Domain” (ACS Medicinal Chemistry Letters, 2023).

Target: T1, androgen receptor (AR) (Homo sapiens, UniProt P10275)
T1 sequence (P10275 1-920): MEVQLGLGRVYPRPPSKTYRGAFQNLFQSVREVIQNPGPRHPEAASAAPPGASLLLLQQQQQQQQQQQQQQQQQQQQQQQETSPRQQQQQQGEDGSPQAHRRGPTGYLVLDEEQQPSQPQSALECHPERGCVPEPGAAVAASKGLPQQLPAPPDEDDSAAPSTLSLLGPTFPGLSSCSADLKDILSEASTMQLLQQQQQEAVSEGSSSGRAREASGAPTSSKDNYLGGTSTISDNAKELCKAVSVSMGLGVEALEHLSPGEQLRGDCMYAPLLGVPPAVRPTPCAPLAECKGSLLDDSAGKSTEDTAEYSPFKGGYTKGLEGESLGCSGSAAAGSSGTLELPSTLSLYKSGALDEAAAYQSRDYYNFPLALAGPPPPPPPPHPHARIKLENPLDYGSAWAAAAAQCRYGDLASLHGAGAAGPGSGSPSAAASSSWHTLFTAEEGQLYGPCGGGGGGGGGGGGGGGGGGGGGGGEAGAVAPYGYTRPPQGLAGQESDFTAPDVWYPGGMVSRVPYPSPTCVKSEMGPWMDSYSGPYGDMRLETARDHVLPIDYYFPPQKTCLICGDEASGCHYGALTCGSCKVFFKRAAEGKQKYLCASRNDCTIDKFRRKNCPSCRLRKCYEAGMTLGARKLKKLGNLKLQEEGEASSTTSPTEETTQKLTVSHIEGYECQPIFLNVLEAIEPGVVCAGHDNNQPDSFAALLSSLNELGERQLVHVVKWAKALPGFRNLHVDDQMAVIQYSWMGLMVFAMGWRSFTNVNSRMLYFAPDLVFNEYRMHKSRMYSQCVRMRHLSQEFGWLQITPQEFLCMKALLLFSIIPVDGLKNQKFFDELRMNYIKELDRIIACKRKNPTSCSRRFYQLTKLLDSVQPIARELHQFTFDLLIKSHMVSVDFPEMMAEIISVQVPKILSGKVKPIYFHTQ
Details: for activity in VCaP GRE2-luciferase assay (in words) / IC50: VCaP cells, 1 nM DHT; for Ligand Efficiency (LE): from VCaP GRE2-luciferase IC50; for Lipophilic Ligand Efficiency (LLE): from VCaP GRE2-luciferase IC50 and cLogP; for IC50: read-out: VCaP GRE2-luciferase IC50, 24 h, 0–30 µM compound
Procedure: VCaP cells, obtained from the American Type Culture Collection, were maintained in Dulbecco’s Modified Eagles Medium (DMEM) supplemented with 10% foetal bovine serum. Cells were maintained at 37°C without antibiotics in a humidified atmosphere
Transient transfection and Luciferase Activity Assay:
Cells at 70–80% confluence in 24 well plates, were transferred to DMEM
300ng/well of the firefly reporter plasmid, GRE2-TATA-luc using JetPEI (PolyPLUS Transfection) according to the manufacturers’ protocol.
replaced with fresh DMEM +5% CSS containing either DMSO (vehicle control) or 0– 30 µM small molecules together with 1nM DHT. Twenty four hours later, medium was aspirated, cells were washed with PBS and extracted with Passive Lysis Buffer
Cell debris was removed by centrifugation at 13,000 xg for 5min and supernatants collected. Luciferase activity was measured in triplicate, using an in-house luciferase assay buffer (13 mM MgSO4 7H2O, 30 mM
amount of total cellular protein.
Inhibition of hormone-dependent expression of prostate specific antigen (PSA):
VCaP prostate cells were treated with 1 nM DHT in the absence or presence of inhibitor. After 24 hours cells were harvested and PSA detected by Western blotting and normalised against β-actin.
Luciferase activity in cells treated with small molecules was determined as a percentage of the untreated control, which was set at 100%. Plots of activity against small molecule concentration (log) were analysed in GraphPad PRISM 5 and IC50 values for each small molecule determined.

Compound	activity in VCaP GRE2-luciferase assay (in words)	Ligand Efficiency (LE)	Lipophilic Ligand Efficiency (LLE)	IC50
CSc1ccc(C(N)=O)cc1-c1cc(O)cc(F)c1 [Compound 32]	inactive	0.54	4.9	> 30 µM
Cn1ncc2cc(-c3cc(C(N)=O)ccc3O)ccc21 [Compound 49]	lack of activity	0.52	6.1	> 30 µM
CSc1ccc(C(N)=O)cc1-c1ccc2[nH]ncc2c1 [Compound 12]		0.59	6.6	0.7 µM
Cn1ncc2cc(-c3cc(C(N)=O)ccc3C(F)(F)F)ccc21 [Compound 45]		0.48	5.4	8.6 µM
CSc1ccc(C(N)=O)cc1-c1ccc2ocnc2c1 [Compound 26]		0.52	4.6	> 30 µM
Cn1ncc2cc(-c3cc(C(N)=O)ccc3N3CCOCC3)ccc21 [Compound 53]		0.41	6.1	> 30 µM
COc1ccc(-c2cc(C(N)=O)ccc2SC)cc1F [Compound 29]		0.63	6.2	0.76 µM
Cn1ncc2cc(-c3cccc(C(N)=O)c3)ccc21 [Compound 43]	no bioactivity	0.54	5.7	> 30 µM
Cn1ncc2cc(-c3cc(C(N)=O)cnc3SCc3ccccc3)ccc21 [Compound 35]		0.38	4.7	> 30 µM
COc1cc(-c2cc(C(N)=O)ccc2SC)ccc1N [Compound 30]	loss of activity	0.52	5.4	> 30 µM
CSc1ccc(C(N)=O)cc1-c1ccc2c(c1)CCO2 [Compound 27]		0.52	4.4	> 30 µM
CSc1ccc(C(N)=O)cc1-c1cccc2c1CC(=O)N2 [Compound 19]	no activity	0.49	5.5	> 30 µM
CSc1ccc(C(N)=O)cc1-c1ccc(F)c(O)c1 [Compound 33]		0.72	7.3	0.12 µM
Cn1ncc2cc(-c3cc(C(N)=O)ccc3OC(F)(F)F)ccc21 [Compound 48]		0.43	4.6	> 30 µM
Cn1ncc2cc(-c3cc(C(N)=O)ccc3F)ccc21 [Compound 44]	inactive	0.52	5.6	> 30 µM
COc1ccc(C(N)=O)cc1-c1ccc2c(cnn2C)c1 [Compound 46]		0.49	5.8	> 30 µM

Compound	activity in VCaP GRE2-luciferase assay (in words)	Ligand Efficiency (LE)	Lipophilic Ligand Efficiency (LLE)	IC50
CSc1cc(C(N)=O)cc(-c2ccc3c(cnn3C)c2)c1 [Compound 39]	inactive	0.49	5.3	> 30 µM
CSc1ccc(C(N)=O)cc1-c1ccncc1 [Compound 23]	loss of activity	0.61	5.6	> 30 µM
Cn1ncc2cc(-c3cc(C(N)=O)ccc3NCCCN3CCOCC3)ccc21 [Compound 56]		0.43	7.5	0.8 µM
CSc1ccc(C(N)=O)cc1-c1cncnc1 [Compound 24]		0.77	8.2	0.27 µM
COc1ccc(-c2cc(C(N)=O)ccc2SC)cc1OC [Compound 28]	Activity was abolished	0.49	4.8	> 30 µM
COc1ncc(C(N)=O)cc1-c1ccc2c(cnn2C)c1 [Compound 37]		0.49	6.5	> 30 µM
CSc1ccc(C(=O)O)cc1-c1cncnc1 [Compound 58]		0.80	8.2	0.12 µM
CSc1ccc(C(=O)N2CCOCC2)cc1-c1cncnc1 [Compound 60]		0.60		0.26 µM
CSc1ccc(C(N)=O)cc1-c1cccc(O)c1F [Compound 31]	inactive	0.54	4.9	> 30 µM
CSc1ccc(C(N)=O)cc1-c1c(C)noc1C [Compound 10]		0.63	6.2	4.7 µM
CCc1ccc(C(N)=O)cc1-c1ccc2c(cnn2C)c1 [Compound 42]	loss of activity	0.49	5.0	> 30 µM
CSc1ncc(C(N)=O)cc1-c1ccc2c(cnn2C)c1 [Compound 34]	loss of activity	0.49	6.2	> 30 µM
CSc1ccc(C(N)=O)cc1-c1ccc[nH]1 [Compound 11]	no activity		5.8	> 30 µM
CSc1c(F)cc(C(N)=O)cc1-c1ccc2c(cnn2C)c1 [Compound 38]		0.60	7.3	0.24 µM
CSc1ccc(C(N)=O)cc1-c1ccc2cn[nH]c2c1 [Compound 14]		0.63	7.1	2.2 µM
